Results: patent publication US20120283332A1 (OHIO UNIVERSITY, priority 2009, published 2012)

Key:
[1] = test system: Type 2 diabetes; conditions: human, in vivo
From the text: They had recently stopped all diabetic medications due to side effects. They wished to stay off insulin due to the risk of gaining weight.
Labs: Hgb A1C 11.2%, Total Cholesterol: 159, Triglycerides: 284, HDL: 32, LDL: 70
The patient was not on any diabetic medications due to intolerable gastrointestinal side effects. […] It was decided that an alternative drug delivery mechanism would be appropriate. […] The patient was educated on the usage of the gel, how to apply the gel and potential side effects. The patient was to contact the physician if any adverse effects occurred. […] The patient was to follow-up in one month.
The patient stated that there had been no lifestyle changes.
Lipids were collected with results of total cholesterol: 119, triglycerides: 209, HDL: 29, LDL: 48.
They were interested in trying a medication that will cover their through the evening to get their BS to 200 mg/dL in the morning. They were concerned with anything that will cause them to gain weight.

[2] = cited from earlier work
[3] = test system: DM2; conditions: oral metformin
[4] = oral; cited from earlier work

Compound | tolerability of previously tried diabetic medications [1] | patients experiencing a gastrointestinal side effect ([2]; oral metformin, anorexia, nausea, vomiting, abdominal discomfort, diarrhea) | patients discontinuing therapy due to side effects ([2]; oral metformin) | patients developing vitamin B12 deficiency ([2]; patients taking metformin) | BS readings ([3]; before it was stopped) | side effects leading to stopping ([3]; stopped 3 months prior to visit) | absorption time [4]
N[C@@H](CC(=O)N1CCn2c(nnc2C(F)(F)F)C1)Cc1cc(F)c(F)cc1F [sitagliptin] | unable to tolerate |  |  |  |  |  | 
CN(C)C(=N)N=C(N)N [metformin] | unable to tolerate | Up to 20% | up to 5% | 77% | improved | severe gastrointestinal side effects | 6 h
CCc1ccc(CCOc2ccc(CC3SC(=O)NC3=O)cc2)nc1 (stereo not drawn) [pioglitazone] | unable to tolerate |  |  |  |  |  | 
